How the values were obtained:
[1] = molecular target: T1, human vasopressin V1b receptor (Homo sapiens, UniProt P47901); test: biochemical
T1 sequence (P47901 1-424): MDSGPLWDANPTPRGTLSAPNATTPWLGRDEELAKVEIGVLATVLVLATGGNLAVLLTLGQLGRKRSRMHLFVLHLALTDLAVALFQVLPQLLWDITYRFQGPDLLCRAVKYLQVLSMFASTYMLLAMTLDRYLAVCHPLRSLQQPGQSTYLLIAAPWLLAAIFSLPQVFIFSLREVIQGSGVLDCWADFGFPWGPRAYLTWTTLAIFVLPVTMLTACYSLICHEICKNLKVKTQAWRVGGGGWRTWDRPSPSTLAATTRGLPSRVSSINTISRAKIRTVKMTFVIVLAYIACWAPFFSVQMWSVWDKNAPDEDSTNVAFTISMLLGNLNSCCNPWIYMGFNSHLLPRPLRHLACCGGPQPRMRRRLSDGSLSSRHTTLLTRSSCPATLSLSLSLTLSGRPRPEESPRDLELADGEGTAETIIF

[2] = molecular target: human vasopressin V1a receptor (Homo sapiens, UniProt P37288); test: Vasopressin V1a receptor binding assay; conditions: selectivity quotient, human V1a vs human V1b
Chain of human vasopressin V1a receptor (P37288 whole entry): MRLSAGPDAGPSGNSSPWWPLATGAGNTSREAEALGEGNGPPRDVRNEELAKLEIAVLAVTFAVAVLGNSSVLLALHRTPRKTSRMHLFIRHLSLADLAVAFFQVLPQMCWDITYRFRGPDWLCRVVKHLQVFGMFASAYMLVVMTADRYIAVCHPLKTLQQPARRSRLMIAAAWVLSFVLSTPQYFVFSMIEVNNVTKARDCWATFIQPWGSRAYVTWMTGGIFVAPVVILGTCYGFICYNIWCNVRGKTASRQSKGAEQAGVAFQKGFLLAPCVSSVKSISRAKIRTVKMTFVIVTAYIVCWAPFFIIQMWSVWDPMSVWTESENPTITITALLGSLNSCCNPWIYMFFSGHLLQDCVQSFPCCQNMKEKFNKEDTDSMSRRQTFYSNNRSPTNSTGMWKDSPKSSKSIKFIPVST

Ki [1]	Ki(hV1a)/Ki(hV1b) [2]	Structure (SMILES)
< 1 nM	–	CCOc1ncccc1[C@]1(NC(=O)N2CC(N3CCC(N4CCCC4)CC3)C2)C(=O)N(S(=O)(=O)c2ccc(OC)cc2OC)c2ccc(Cl)cc21 [Example 9, (S)—N-(5-chloro-1-((2,4-dimethoxyphenyl)sulfonyl)-3-(2-ethoxypyridin-3-yl)-2-oxoindolin-3-yl)-3-(4-(pyrrolidin-1-yl)piperidin-1-yl)azetidine-1-carboxamide]
1 to 10 nM	+++ (>75)	CCOc1ncccc1[C@]1(NC(=O)N2CC(N3CCC(N4CCC4)CC3)C2)C(=O)N(S(=O)(=O)c2ccc(OC)cc2OC)c2ccc(C#N)cc21 [Example 7, (S)-3-(4-(azetidin-1-yl)piperidin-1-yl)-N-(5-cyano-1-((2,4-dimethoxyphenyl)sulfonyl)-3-(2-ethoxypyridin-3-yl)-2-oxoindolin-3-yl)azetidine-1-carboxamide]
< 1 nM	–	CCOc1ncccc1[C@]1(NC(=O)N2CC(N3CCC(N4CCCCC4)CC3)C2)C(=O)N(S(=O)(=O)c2ccc(OC)cc2OC)c2ccc(Cl)cc21 [Example 8, (S)-3-([1,4′-bipiperidin]-1′-yl)-N-(5-chloro-1-((2,4-dimethoxyphenyl)sulfonyl)-3-(2-ethoxypyridin-3-yl)-2-oxoindolin-3-yl)azetidine-1-carboxamide]

Second part, the molecule before the results:

Structure (SMILES)	Ki [1]	Ki(hV1a)/Ki(hV1b) [2]
CCOc1ncccc1[C@]1(NC(=O)N2CC(N3CCC(N4CCCCC4)CC3)C2)C(=O)N(S(=O)(=O)c2ccc(OC)cc2OC)c2ccc(C#N)cc21 [Example 1, N-[(3S)-5-cyano-1-(2,4-dimethoxyphenyl)sulfonyl-3-(2-ethoxy-3-pyridyl)-2-oxoindolin-3-yl]-3-[4-(1-piperidyl)-1-piperidyl]azetidine-1-carboxamide]	< 1 nM	+++ (>75)
COc1ccc(S(=O)(=O)N2C(=O)[C@@](NC(=O)N3CC(N4CCC(N5CCCC5)CC4)C3)(c3cccnc3OC)c3cc(C#N)ccc32)c(OC)c1 [Example 6, (S)—N-(5-cyano-1-((2,4-dimethoxyphenyl)sulfonyl)-3-(2-methoxypyridin-3-yl)-2-oxoindolin-3-yl)-3-(4-(pyrrolidin-1-yl)piperidin-1-yl)azetidine-1-carboxamide]	1 to 10 nM	+++ (>75)
CCOc1ncccc1[C@]1(NC(=O)N2CC(N3CCC(N(CC)CC)CC3)C2)C(=O)N(S(=O)(=O)c2ccc(OC)cc2OC)c2ccc(C#N)cc21 [Example 3, (S)—N-(5-cyano-1-((2,4-dimethoxyphenyl)sulfonyl)-3-(2-ethoxypyridin-3-yl)-2-oxoindolin-3-yl)-3-(4-(diethylamino)piperidin-1-yl)azetidine-1-carboxamide]	1 to 10 nM	+++ (>75)
CCOc1ncccc1[C@]1(NC(=O)N2CC(N3CCC(N4CCCC4)CC3)C2)C(=O)N(S(=O)(=O)c2ccc(OC)cc2OC)c2ccc(C#N)cc21 [Example 4, (S)—N-(5-cyano-1-((2,4-dimethoxyphenyl)sulfonyl)-3-(2-ethoxypyridin-3-yl)-2-oxoindolin-3-yl)-3-(4-(pyrrolidin-1-yl)piperidin-1-yl)azetidine-1-carboxamide]	1 to 10 nM	+++ (>75)
COc1ccc(S(=O)(=O)N2C(=O)[C@@](NC(=O)N3CC(N4CCC(N5CCCCC5)CC4)C3)(c3cccnc3OC)c3cc(C#N)ccc32)c(OC)c1 [Example 5, (S)-3-([1,4′-bipiperidin]-1′-yl)-N-(5-cyano-1-((2,4-dimethoxyphenyl)sulfonyl)-3-(2-methoxypyridin-3-yl)-2-oxoindolin-3-yl)azetidine-1-carboxamide]	< 1 nM	+++ (>75)
CCOc1ncccc1[C@]1(NC(=O)N2CC(N3CCC(N(C)C)CC3)C2)C(=O)N(S(=O)(=O)c2ccc(OC)cc2OC)c2ccc(C#N)cc21 [Example 2, (S)—N-(5-cyano-1-((2,4-dimethoxyphenyl)sulfonyl)-3-(2-ethoxypyridin-3-yl)-2-oxoindolin-3-yl)-3-(4-(dimethylamino)piperidin-1-yl)azetidine-1-carboxamide]	1 to 10 nM	+++ (>75)

Reference: patent US9862704B2, “Oxindole derivatives carrying an amine-substituted piperidyl-acetidinyl substituent and use thereof for treating vasopressine-related diseases” (AbbVie Deutschland GmbH & Co. KG, priority 2013, dated 2018)
